Test systems include DLD-1 colon; DMS 273 small cell lung; KM20L2 colon; LXFL 529 NSCLC; RXF-631 renal; HS 578T breast; MDA-N; PC-3 prostate.
Common to all, as to test: NCI-60 cell line screen, 48 h

Molecules are shown by their SMILES. “And” between values parts separate entries of the source, which are not always exact repeats. Equal entries are not always repeated.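 Step 1: Grow cells in 96-well plates. Step 2: Expose to compound for 48 hours at 5 concentrations. Step 3: Interpolate endpoints linearly; if unreached, use highest concentration. Abbreviation: GI50, concentration required for 50% inhibition of growth. TGI: concentration producing complete growth inhibition.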 A value given as a limit tells only on which side of the number the result lay.

With `CC(=O)N/C(=C\c1ccc(/C=C(\NC(C)=O)c2nc3ccc(Cl)cc3[nH]2)cc1)c1nc2ccccc2[nH]1`, the TGI in the assay on DLD-1 colon, with DMS 273 small cell lung, in the assay with KM20L2 colon, with LXFL 529 NSCLC and with RXF-631 renal was > 100 µM throughout.
For the compound `CC1(C)C(=O)N(c2ccccc2)C(=O)N1c1nc2ccccc2[nH]1`, the TGI in the assay on DLD-1 colon, in the assay on DMS 273 small cell lung, in the assay with KM20L2 colon, with LXFL 529 NSCLC and in the assay on RXF-631 renal was > 100 µM in each case.
Turning to `COC(=O)c1c(-c2ccccc2)cc2c3cc(-c4ccccc4)c(C(=O)OC)n3c3ccccc3n12`, the TGI in the assay with DLD-1 colon, with DMS 273 small cell lung, with KM20L2 colon, in the assay on LXFL 529 NSCLC and with RXF-631 renal was > 100 µM in each case.
For `CC1=C2C(O)C(C(C)CO)C(O)CC2(C)C(O)CC1` (stereo not drawn), the TGI in the assay with DLD-1 colon, in the assay with DMS 273 small cell lung, in the assay with KM20L2 colon, in the assay on LXFL 529 NSCLC and with RXF-631 renal was > 100 µM throughout.
With `O=C1C(Br)=C[C@H]2C3C=CC(Br)(C3=O)[C@@H]12` (stereo partly drawn), the TGI with DLD-1 colon stood at 20.5 µM; in the assay with DMS 273 small cell lung it was 27 µM; in the assay with KM20L2 colon, 18.2 µM; with LXFL 529 NSCLC, 21.8 µM; in the assay on RXF-631 renal, 50.1 µM.
Regarding `NC(=O)c1c[se]c(C2OC(CO)C(O)C2O)n1` (stereo not drawn), the TGI with DLD-1 colon, in the assay with DMS 273 small cell lung, in the assay on HS 578T breast, in the assay with LXFL 529 NSCLC, with MDA-N and in the assay with PC-3 prostate was > 100 µM each time. Further, the TGI in the assay with RXF-631 renal was > 100 µM.
With `N#CCCc1nc2ccc(Br)cc2c(=O)n1CCO`, the TGI in the assay with DLD-1 colon, with LXFL 529 NSCLC and in the assay on RXF-631 renal was > 100 µM throughout.
Consider `C=CCc1cc2cccc(OC)c2oc1=O`, for which the TGI in the assay on DLD-1 colon, in the assay with DMS 273 small cell lung, in the assay with KM20L2 colon, in the assay with LXFL 529 NSCLC and in the assay on RXF-631 renal was > 100 µM each time.
As for `CCC(=O)c1cn(C)c(=O)c2ccccc12`, the TGI in the assay with DLD-1 colon, with DMS 273 small cell lung, in the assay with KM20L2 colon, in the assay with LXFL 529 NSCLC and in the assay with RXF-631 renal was > 100 µM each time.
Turning to `CC(=O)O/N=C/c1ncccc1CO`, the TGI in the assay with DLD-1 colon, in the assay with DMS 273 small cell lung, in the assay with KM20L2 colon, in the assay with LXFL 529 NSCLC and in the assay with RXF-631 renal was > 100 µM in each case.
On to `O=[N+]([O-])c1c(/C=N/Nc2ccccc2)oc(-c2ccc3c(c2)OCO3)c1-c1ccc2c(c1)OCO2`, for which the TGI in the assay on DLD-1 colon is > 100 µM; with KM20L2 colon, 37.5 µM; in the assay on LXFL 529 NSCLC, > 100 µM; with RXF-631 renal it was > 100 µM.
`COc1cc(C2c3cc4c(cc3[C@@H](Nc3ccc(C(=O)O)cc3)C3COC(=O)[C@H]23)OCO4)cc(OC)c1O` (stereo partly drawn): the GI50 in the assay with DLD-1 colon is 17.2 µM and 6.86 µM; in the assay on KM20L2 colon, 36.8 µM and > 17.5 µM. The TGI is 54.9 µM and > 17.5 µM in the assay with DLD-1 colon; 28.5 µM and > 17.5 µM with DMS 273 small cell lung; > 100 µM in the assay with KM20L2 colon; 39.8 µM and > 17.5 µM with LXFL 529 NSCLC.
Regarding `Nc1ccc(C(=O)N/C(=C\C=C\c2ccco2)c2nc3[nH]c(=S)[nH]c(=O)c3[nH]2)cc1`, the TGI with DLD-1 colon, in the assay on DMS 273 small cell lung, with KM20L2 colon, in the assay with LXFL 529 NSCLC and in the assay on RXF-631 renal was > 100 µM in each case.
On to `Cc1cc2nc3c(=O)n(C)c(=O)nc-3n(-c3ccc(Cl)cc3)c2cc1C`, for which the TGI in the assay with DLD-1 colon came to 42.1 µM; in the assay with DMS 273 small cell lung, 20.6 µM; in the assay with KM20L2 colon, 26.1 µM; in the assay with LXFL 529 NSCLC, 27.5 µM.
For `O=C(Nc1ccccc1)c1ccc(Cl)c([N+](=O)[O-])c1`, the TGI with DLD-1 colon is > 100 µM; with DMS 273 small cell lung it was 14.2 µM; in the assay with KM20L2 colon it was 47.5 µM; in the assay with LXFL 529 NSCLC it was 18.5 µM.
`C=CCCCCCCCCCCCC1CCC(CC)N1` (stereo not drawn): the TGI was 15.5 µM with DLD-1 colon; 5.92 µM in the assay on DMS 273 small cell lung; 15.8 µM in the assay with KM20L2 colon; 26 µM in the assay on LXFL 529 NSCLC; 23.5 µM in the assay with RXF-631 renal.
Turning to `O=C(C(O)c1cn(Cc2ccccc2)c2ccccc12)N1CCCCC1` (stereo not drawn), the TGI in the assay on DLD-1 colon, with DMS 273 small cell lung, in the assay on KM20L2 colon and with LXFL 529 NSCLC was > 100 µM throughout.
For `NC(N)=N/N=C(/c1nc2ccc([N+](=O)[O-])cc2[nH]c1=O)C(O)c1ccco1` (stereo not drawn), the TGI with DLD-1 colon, in the assay with DMS 273 small cell lung, in the assay on KM20L2 colon and in the assay on LXFL 529 NSCLC was > 100 µM in each case.
On to `O=C1C=C(c2c(O)ccc3ccccc23)c2ccccc2C1=O`, for which the TGI with DLD-1 colon was determined as 16.4 µM; in the assay with DMS 273 small cell lung, 11.3 µM; in the assay with KM20L2 colon, 32.1 µM; in the assay on LXFL 529 NSCLC, 2.96 µM; with PC-3 prostate, 4.2 µM; in the assay on RXF-631 renal, 32.9 µM.
With `Cc1nc2ccc(C(F)(F)F)cc2nc1Nc1ccc(Cl)c(Cl)c1`, the TGI was determined as 16.1 µM in the assay on DMS 273 small cell lung, 13.2 µM with KM20L2 colon, 20.6 µM with LXFL 529 NSCLC and 20.1 µM in the assay on RXF-631 renal.
On to `CCN(CC)CCn1c2c3ccccc3ccc2c2oc(=O)c3ccccc3c21`, for which the TGI with DLD-1 colon, in the assay with KM20L2 colon, with LXFL 529 NSCLC and with RXF-631 renal was > 100 µM each time.
On to `COc1ccc(NC(=O)C2C(=O)N(c3ccc(OC)cc3)C(=O)/C2=N/O)cc1` (stereo not drawn), for which the TGI was > 100 µM with DLD-1 colon, > 81.1 µM in the assay on DMS 273 small cell lung, > 100 µM with KM20L2 colon and > 75 µM with LXFL 529 NSCLC.
`CCCC(=O)c1c(NOC2OC(COC(C)=O)C(OC(C)=O)C(OC(C)=O)C2OC(C)=O)nc(OC)n(C)c1=O` (stereo not drawn): the TGI in the assay with DLD-1 colon, in the assay with DMS 273 small cell lung, in the assay with KM20L2 colon and in the assay on LXFL 529 NSCLC was > 100 µM each time.

(Values after PubChem BioAssay (NCI).)
